Test results as given in patent publication US11407721B2, “CIS-morpholinone and other compounds as MDM2 inhibitors for the treatment of cancer” (AMGEN INC., priority 2013, dated 2022).

molecular target: interaction between HDM2 and p53 (GST-hMDM2 (1-188) / biotinylated-p53 (1-83)) (Homo sapiens (Human), UniProt Q00987); experiment: HTRF2 Assay (improved HTRF assay); format: binding; conditions: 0.2 nM GST-hMDM2 (1-188), 0.5 nM biotinylated-p53 (1-83), 100 mM KF; read-out: HTRF2 IC50
Sequence (Q00987 1-188): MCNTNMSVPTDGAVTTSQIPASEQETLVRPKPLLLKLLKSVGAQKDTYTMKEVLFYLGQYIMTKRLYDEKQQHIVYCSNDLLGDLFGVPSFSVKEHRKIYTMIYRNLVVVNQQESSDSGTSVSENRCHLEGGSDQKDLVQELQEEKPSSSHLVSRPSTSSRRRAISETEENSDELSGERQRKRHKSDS

Structure (SMILES)	IC50
CCC[C@H](C(=O)O)N1C(=O)[C@H](Cc2ccc(S(=O)(=O)C(F)(F)F)cc2)O[C@@H](c2ccc(Cl)cc2)[C@H]1c1ccc(Cl)cc1 [Example 56, (R)-2-((2S,3R,6S)-2,3-Bis(4-chlorophenyl)-5-oxo-6-(4-((trifluoromethyl)sulfonyl)benzyl)morpholino)pentanoic acid]	0.453 µM
CCC[C@H](C(=O)O)N1C(=O)[C@H](CCCN2CCOCC2)O[C@@H](c2ccc(Cl)cc2)[C@H]1c1ccc(Cl)cc1 [Example 57, (R)-2-((2S,3R,6S)-2,3-Bis(4-chlorophenyl)-6-(3-morpholinopropyl)-5-oxomorpholino)pentanoic acid]	0.391 µM
CCC[C@H](C(=O)OCC)N1C(=O)[C@H](CCCN2CCOCC2)O[C@@H](c2ccc(Cl)cc2)[C@H]1c1ccc(Cl)cc1 [ethyl (2R)-2-((2S,3R,6S)-2,3-bis(4-chlorophenyl)-6-(3-(4-morpholinyl)propyl)-5-oxo-4-morpholinyl)pentanoate]	2.79 µM
CCC[C@H](C(=O)NCCCC(=O)OC)N1C(=O)[C@H](Cc2ccc(S(C)(=O)=O)cc2)O[C@@H](c2ccc(Cl)cc2)[C@H]1c1ccc(Cl)cc1 [methyl 4-(((2R)-2-((2S,3R,6S)-2,3-bis(4-chlorophenyl)-6-(4-(methylsulfonyl)benzyl)-5-oxo-4-morpholinyl)pentanoyl)amino)butanoate]	0.749 µM

molecular target: interaction between HDM2 and p53 (GST-hMDM2 / biotinylated-p53) (Homo sapiens (Human), UniProt Q00987); experiment: biochemical; conditions: not given
Sequence (Q00987 1-188): as above

IC50	Structure (SMILES)
0.514 µM	CCC[C@H](c1nnn[nH]1)N1C(=O)[C@H](Cc2ccc(I)cc2)O[C@@H](c2ccc(Cl)cc2)[C@H]1c1ccc(Cl)cc1 (racemic) [Example 36, (2S,5R,6S)-4-((R)-1-(1H-Tetrazol-5-yl)butyl)-5,6-bis(4-chlorophenyl)-2-(4-iodobenzyl)morpholin-3-one and (2R,5S,6R)-4-((S)-1-(1H-tetrazol-5-yl)butyl)-5,6-bis(4-chlorophenyl)-2-(4-iodobenzyl)morpholin-3-one]
43.9 µM	CN1C(=O)[C@@H](CC(N)=O)O[C@H](c2ccc(Cl)cc2)[C@@H]1c1ccc(Cl)cc1 [2-((2R,5S,6R)-5,6-bis(4-chlorophenyl)-4-methyl-3-oxo-2-morpholinyl)acetamide]
40.2 µM	CC[C@H](C(=O)O)N1C(=O)CO[C@H](c2ccc(Cl)cc2)[C@@H]1c1ccc(Cl)cc1 [(2R)-2-((2R,3S)-2,3-bis(4-chlorophenyl)-5-oxo-4-morpholinyl)butanoic acid]
33.1 µM	CCCC[C@H](C(=O)O)N1C(=O)CO[C@H](c2ccc(Cl)cc2)[C@@H]1c1ccc(Cl)cc1 [(2R)-2-((2R,3S)-2,3-bis(4-chlorophenyl)-5-oxo-4-morpholinyl)hexanoic acid]
61.7 µM	C[C@H](C(=O)O)N1C(=O)CO[C@H](c2ccc(Cl)cc2)[C@@H]1c1ccc(Cl)cc1 [(2R)-2-((2R,3S)-2,3-bis(4-chlorophenyl)-5-oxo-4-morpholinyl)propanoic acid]
46.8 µM	C[C@H]1O[C@@H](c2ccc(Br)cc2)[C@@H](c2ccc(Br)cc2)N(C)C1=O [(2R,5R,6S)-5,6-bis(4-bromophenyl)-2,4-dimethyl-3-morpholinone]
67.5 µM	CN1C(=O)[C@H](O)O[C@@H](c2ccc(Cl)cc2)[C@H]1c1ccc(Cl)cc1 [(2R,5R,6S)-5,6-bis(4-chlorophenyl)-2-hydroxy-4-methyl-3-morpholinone]
72.3 µM	CN1C(=O)CN(Cc2ccccc2)[C@H](c2ccc(Br)cc2)[C@@H]1c1ccc(Br)cc1 [(5R,6S)-5,6-bis(4-bromophenyl)-1-methyl-4-(phenylmethyl)-2-piperazinone]
84.4 µM	O=C1CN(Cc2ccccc2)[C@H](c2ccc(Br)cc2)[C@H](c2ccc(Br)cc2)N1 [(5R,6S)-5,6-bis(4-bromophenyl)-4-(phenylmethyl)-2-piperazinone]
38.2 µM	O=C1CO[C@@H](c2ccc(Br)cc2)[C@@H](c2ccc(Br)cc2)N1C1CC1 [(5R,6S)-5,6-bis(4-bromophenyl)-4-cyclopropyl-3-morpholinone]
41.8 µM	O=C1CO[C@@H](c2ccc(Cl)cc2)[C@@H](c2ccc(Cl)cc2)N1CC1CC1 [(5R,6S)-5,6-bis(4-chlorophenyl)-4-(cyclopropylmethyl)-3-morpholinone]
